Measurements taken from the supplement of paper PMC10307832.

Key:
Assay in all cases: relative viability (nuclei count vs DMSO), 5 days (fraction); higher = more cells survive
VE-821 + Olaparib = compound: CS(=O)(=O)c1ccc(-c2cnc(N)c(C(=O)Nc3ccccc3)n2)cc1 [VE-821] + O=C(c1cc(Cc2n[nH]c(=O)c3ccccc23)ccc1F)N1CCN(C(=O)C2CC2)CC1 [Olaparib] (partner 8 µM)
Procedure, shortened: (§1)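 Lung cancer cell lines in 1536-well plates got either a single drug or a fixed anchor-drug dose together with five library-drug doses (not always all listed) in √10 steps, by pin tool, on the day after seeding. Nuclei were counted after 5 days, and relative viability is the treated-to-vehicle ratio of nuclei counts. Values are medians of duplicate plates.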

Vismodegib + Dasatinib = compound: CS(=O)(=O)c1ccc(C(=O)Nc2ccc(Cl)c(-c3ccccn3)c2)c(Cl)c1 [Vismodegib] + Cc1nc(Nc2ncc(C(=O)Nc3c(C)cccc3Cl)s2)cc(N2CCN(CCO)CC2)n1 [Dasatinib] (partner 0.075 µM)
Procedure, shortened: as §1

Vismodegib + AZD7762 = compound: CS(=O)(=O)c1ccc(C(=O)Nc2ccc(Cl)c(-c3ccccn3)c2)c(Cl)c1 [Vismodegib] + NC(=O)Nc1cc(-c2cccc(F)c2)sc1C(=O)N[C@H]1CCCNC1 [AZD7762] (partner 0.2 µM)
Procedure, shortened: as §1

Vismodegib + Pictilisib = compound: CS(=O)(=O)c1ccc(C(=O)Nc2ccc(Cl)c(-c3ccccn3)c2)c(Cl)c1 [Vismodegib] + CS(=O)(=O)N1CCN(Cc2cc3nc(-c4cccc5[nH]ncc45)nc(N4CCOCC4)c3s2)CC1 [Pictilisib] (partner 1 µM)
Procedure, shortened: as §1

Row | Cell Line | relative viability (VE-821 + Olaparib; first compound 0.08 µM) | relative viability (VE-821 + Olaparib; first compound 0.253 µM) | relative viability (VE-821 + Olaparib; first compound 0.8 µM) | relative viability (VE-821 + Olaparib; first compound 2.53 µM) | relative viability (VE-821 + Olaparib; first compound 8 µM) | relative viability (Vismodegib + Dasatinib; first compound 0.08 µM) | relative viability (Vismodegib + Dasatinib; first compound 0.253 µM) | relative viability (Vismodegib + Dasatinib; first compound 0.8 µM) | relative viability (Vismodegib + Dasatinib; first compound 2.53 µM) | relative viability (Vismodegib + Dasatinib; first compound 8 µM) | relative viability (Vismodegib + AZD7762; first compound 0.08 µM) | relative viability (Vismodegib + AZD7762; first compound 0.253 µM) | relative viability (Vismodegib + AZD7762; first compound 0.8 µM) | relative viability (Vismodegib + AZD7762; first compound 2.53 µM) | relative viability (Vismodegib + AZD7762; first compound 8 µM) | relative viability (Vismodegib + Pictilisib; first compound 0.08 µM) | relative viability (Vismodegib + Pictilisib; first compound 0.253 µM) | relative viability (Vismodegib + Pictilisib; first compound 0.8 µM) | relative viability (Vismodegib + Pictilisib; first compound 2.53 µM) | relative viability (Vismodegib + Pictilisib; first compound 8 µM)
1 | 201T | 0.859 | 0.819 | 0.826 | 0.748 | 0.623 | 0.646 | 0.52 | 0.481 | 0.569 | 0.463 | 0.624 | 0.623 | 0.696 | 0.622 | 0.581 | 0.712 | 0.67 | 0.641 | 0.673 | 0.66
2 | A549 | 0.431 | 0.291 | 0.195 | 0.262 | 0.207 |  |  |  |  |  |  |  |  |  |  | 0.507 | 0.465 | 0.478 | 0.56 | 0.432
3 | A-427 | 0.797 | 0.71 | 0.618 | 0.556 | 0.389 | 0.647 | 0.65 | 0.609 | 0.642 | 0.804 | 0.739 | 0.706 | 0.805 | 0.619 | 0.801 | 0.757 | 0.701 | 0.635 | 0.694 | 0.634
4 | ABC-1 | 0.776 | 0.873 | 0.755 | 0.869 | 0.757 | 0.584 | 0.415 | 0.527 | 0.527 | 0.582 | 0.97 | 0.851 | 0.823 | 0.803 | 0.839 | 0.602 | 0.841 | 0.712 | 0.757 | 0.772
5 | BEN | 1.17 | 1.01 | 0.902 | 0.768 | 1.08 | 0.385 | 0.399 | 0.337 | 0.315 | 0.296 | 0.792 | 0.68 | 0.77 | 0.684 | 0.701 | 0.614 | 0.602 | 0.537 | 0.541 | 0.583
6 | CAL-12T | 0.869 | 0.73 | 0.816 | 0.691 | 0.549 | 0.322 | 0.224 | 0.403 | 0.586 | 0.482 | 0.643 | 0.559 | 0.607 | 0.577 | 0.664 |  | 0.509 | 0.263 | 0.241 | 0.36
7 | COR-L23 | 0.372 | 0.346 | 0.221 | 0.304 | 0.182 | 0.507 | 0.455 | 0.543 | 0.452 | 0.533 |  |  |  |  |  | 0.803 | 0.658 | 0.714 | 0.675 | 0.786
8 | COR-L 105 | 0.708 | 0.638 | 0.434 | 0.561 | 0.484 | 0.288 | 0.303 | 0.422 | 0.339 | 0.357 |  |  |  |  |  | 0.383 | 0.371 | 0.445 | 0.401 | 0.453
9 | Calu-6 | 0.626 | 0.597 | 0.566 | 0.386 | 0.226 |  |  |  |  |  |  |  |  |  |  | 0.934 | 0.915 | 0.886 | 0.918 | 0.859
10 | ChaGo-K-1 | 0.449 | 0.396 | 0.36 | 0.345 | 0.283 | 0.718 | 0.672 | 0.622 | 0.583 | 0.632 | 0.886 | 0.873 | 0.753 | 0.857 | 0.97 | 0.784 | 0.851 | 0.623 | 0.666 | 0.709
11 | EBC-1 | 0.75 | 0.774 | 0.74 | 0.562 | 0.416 |  |  |  |  |  |  |  |  |  |  | 0.38 | 0.433 | 0.386 | 0.426 | 0.433
12 | EKVX | 0.863 | 0.837 | 0.813 | 0.783 | 0.736 | 0.491 | 0.561 | 0.604 | 0.576 | 0.526 |  | 0.774 | 0.717 | 0.606 | 0.735 | 0.47 | 0.462 | 0.391 | 0.355 | 0.395
13 | EMC-BAC-2 | 0.606 | 0.495 | 0.559 | 0.46 | 0.383 | 0.334 | 0.365 | 0.285 | 0.353 | 0.317 | 1.16 | 1.1 | 1.06 | 1.07 | 1.08 | 0.541 | 0.516 | 0.588 | 0.529 | 0.461
14 | EPLC-272H | 0.949 | 0.829 | 0.504 | 0.608 | 0.255 | 0.362 | 0.367 | 0.397 | 0.327 | 0.312 | 0.3 | 0.166 | 0.304 | 0.163 | 0.257 | 0.319 | 0.382 | 0.308 | 0.317 | 0.293
15 | H3255 | 0.576 | 0.532 | 0.553 | 0.535 | 0.493 | 0.303 | 0.329 | 0.38 | 0.37 | 0.309 | 0.951 | 0.886 | 0.818 | 0.785 | 0.853 | 0.483 | 0.481 | 0.479 | 0.471 | 0.471
